Common to all, as to assay type: functional
Experiment [1] has as its system Enterobacter cloacae. Briefly: Antibacterial activity against CTX-M-15 ESBL producing Enterobacter cloacae assessed as resistant isolates by disk diffusion method.
A further experiment relates to Morganella morganii. Briefly: Antibacterial activity against CTX-M-14 ESBL producing Morganella morganii assessed as resistant isolates by disk diffusion method.
Experiment [2] concerns Escherichia coli. Briefly: Antibacterial activity against CTX-M-15 ESBL producing Escherichia coli assessed as resistant isolates by disk diffusion method. On the technique in general: A growth-free zone around the sample is the usual read-out of agar diffusion tests.
In experiment [3] the test system is Klebsiella pneumoniae. Briefly: Antibacterial activity against SHV-12 ESBL producing Klebsiella pneumoniae assessed as resistant isolates by disk diffusion method.
In experiment [4] the test system is Klebsiella pneumoniae. Briefly: Antibacterial activity against CTX-M-14 ESBL producing Klebsiella pneumoniae assessed as resistant isolates by disk diffusion method.
Experiment [5] relates to Enterobacter cloacae. Briefly: Antibacterial activity against SHV-12 ESBL producing Enterobacter cloacae assessed as resistant isolates by disk diffusion method.
The test system of a further experiment is Proteus mirabilis. The experiment is described as follows: Antibacterial activity against CTX-M-14 ESBL producing Proteus mirabilis assessed as resistant isolates by disk diffusion method.
The subject of experiment [6] is Klebsiella pneumoniae. The experiment is described as follows: Antibacterial activity against CTX-M-15 ESBL producing Klebsiella pneumoniae assessed as resistant isolates by disk diffusion method.
Experiment [7] relates to Escherichia coli. Briefly: Antibacterial activity against CTX-M-14 ESBL producing Escherichia coli assessed as resistant isolates by disk diffusion method.
Experiment [8] has as its system Escherichia coli. The experiment is described as follows: Antibacterial activity against SHV-12 ESBL producing Escherichia coli assessed as resistant isolates by disk diffusion method.
Experiment [9] concerns Escherichia coli. Briefly: Antibacterial activity against CTX-M-15 and SHV-27 ESBL producing Escherichia coli assessed as resistant isolates by disk diffusion method.
Experiment [10] concerns Escherichia coli. The experiment is described as follows: Antibacterial activity against CTX-M-15 and SHV-12 ESBL producing Escherichia coli assessed as resistant isolates by disk diffusion method.

`NCC[C@H](O)C(=O)N[C@@H]1C[C@H](N)[C@@H](O[C@H]2O[C@H](CN)[C@@H](O)[C@H](O)[C@H]2O)[C@H](O)[C@H]1O[C@H]1O[C@H](CO)[C@@H](O)[C@H](N)[C@H]1O` [AMIKACIN]: the Activity stood at 0% in the experiment with Enterobacter cloacae [1]; 100% in the experiment on Morganella morganii; 17% with Escherichia coli [2]; 50% with Klebsiella pneumoniae [3]; 0% in the experiment on Klebsiella pneumoniae [4]; 78% with Enterobacter cloacae [5]. In addition, the Activity was determined as 0% in the experiment on Proteus mirabilis; 20% in the experiment on Klebsiella pneumoniae [6]; 0% in the experiment on Escherichia coli [7]; 100% in the experiment with Escherichia coli [8]; 0% in the experiment on Escherichia coli [9]; 0% with Escherichia coli [10].
As to `O=C(N[C@H](CO)[C@H](O)c1ccc([N+](=O)[O-])cc1)C(Cl)Cl` [CHLORAMPHENICOL], the Activity in the experiment with Enterobacter cloacae [1] is recorded as 100%; in the experiment with Morganella morganii it was 100%; in the experiment with Escherichia coli [2] it was 73%; in the experiment with Klebsiella pneumoniae [3], 83%; in the experiment on Klebsiella pneumoniae [4], 67%; in the experiment on Enterobacter cloacae [5] it was 89%. For the same molecule, the Activity in the experiment with Proteus mirabilis came out at 100%; with Klebsiella pneumoniae [6], 40%; in the experiment on Escherichia coli [7], 82%; in the experiment with Escherichia coli [8] it was 100%; in the experiment on Escherichia coli [9] it was 100%; in the experiment with Escherichia coli [10] it was 100%.
On to `O=C(O)c1cn(C2CC2)c2cc(N3CCNCC3)c(F)cc2c1=O` [CIPROFLOXACIN], for which the Activity in the experiment with Morganella morganii was determined as 100%; with Escherichia coli [2] it was 98%; in the experiment with Klebsiella pneumoniae [3], 67%; in the experiment with Klebsiella pneumoniae [4], 33%; in the experiment with Proteus mirabilis, 100%; in the experiment with Escherichia coli [7] it was 100%. The Activity with Escherichia coli [8] is recorded as 0%; with Escherichia coli [9] it was 100%; with Escherichia coli [10], 100%.
`CCn1cc(C(=O)O)c(=O)c2cc(F)c(N3CCNCC3)cc21` [NORFLOXACIN]: the Activity in the experiment on Enterobacter cloacae [1] is 100%; in the experiment with Morganella morganii, 100%; with Escherichia coli [2], 98%; in the experiment on Klebsiella pneumoniae [3] it was 67%; in the experiment with Klebsiella pneumoniae [4], 33%; in the experiment on Enterobacter cloacae [5], 89%. Further, the Activity with Proteus mirabilis is listed as 100%; in the experiment on Klebsiella pneumoniae [6], 96%; in the experiment on Escherichia coli [7], 100%; in the experiment with Escherichia coli [8], 100%; in the experiment on Escherichia coli [9], 100%; in the experiment with Escherichia coli [10], 100%.
For the molecule `CN(C)[C@@H]1C(O)=C(C(N)=O)C(=O)[C@@]2(O)C(O)=C3C(=O)c4c(O)cccc4[C@@](C)(O)[C@H]3C[C@@H]12` [TETRACYCLINE], the Activity in the experiment on Enterobacter cloacae [1] is on record as 100%; in the experiment on Morganella morganii, 100%; in the experiment on Escherichia coli [2], 88%; with Klebsiella pneumoniae [3], 50%; in the experiment on Klebsiella pneumoniae [4], 67%; in the experiment with Enterobacter cloacae [5] it was 89%. The Activity stood at 100% with Proteus mirabilis; 84% with Klebsiella pneumoniae [6]; 82% with Escherichia coli [7]; 100% with Escherichia coli [8]; 0% with Escherichia coli [9]; 100% in the experiment on Escherichia coli [10].
`COc1cc(Cc2cnc(N)nc2N)cc(OC)c1OC` [TRIMETHOPRIM]: the Activity in the experiment on Enterobacter cloacae [1] is recorded as 100%; in the experiment on Morganella morganii it was 100%; with Escherichia coli [2] it was 95%; in the experiment with Klebsiella pneumoniae [3] it was 100%; in the experiment with Klebsiella pneumoniae [4] it was 100%; with Enterobacter cloacae [5] it was 89%. Also, the Activity in the experiment on Proteus mirabilis, in the experiment with Klebsiella pneumoniae [6], in the experiment with Escherichia coli [7], in the experiment on Escherichia coli [8], in the experiment on Escherichia coli [9] and in the experiment with Escherichia coli [10] was 100% each time.
Take `CCn1cc(C(=O)O)c(=O)c2ccc(C)nc21` [NALIDIXIC ACID]: the Activity in the experiment on Enterobacter cloacae [1] turned out to be 100%; in the experiment on Morganella morganii it was 100%; in the experiment on Escherichia coli [2], 98%; in the experiment with Klebsiella pneumoniae [3], 83%; in the experiment on Klebsiella pneumoniae [4] it was 67%; in the experiment with Enterobacter cloacae [5], 100%. The Activity in the experiment with Proteus mirabilis was 100%; in the experiment with Klebsiella pneumoniae [6] it was 93%; with Escherichia coli [7], 100%; in the experiment with Escherichia coli [8] it was 100%; in the experiment with Escherichia coli [9], 0%; in the experiment with Escherichia coli [10], 100%.
For `NC[C@H]1O[C@H](O[C@H]2[C@H](O)[C@@H](O[C@H]3O[C@H](CO)[C@@H](O)[C@H](N)[C@H]3O)[C@H](N)C[C@@H]2N)[C@H](N)C[C@@H]1O` [TOBRAMYCIN], the Activity is given as 100% in the experiment with Enterobacter cloacae [1]; 100% in the experiment on Morganella morganii; 97% in the experiment with Escherichia coli [2]; 83% with Klebsiella pneumoniae [3]; 67% with Klebsiella pneumoniae [4]; 89% in the experiment on Enterobacter cloacae [5]. In addition, the Activity is 0% in the experiment on Proteus mirabilis; 96% in the experiment on Klebsiella pneumoniae [6]; 100% in the experiment on Escherichia coli [7]; 100% in the experiment on Escherichia coli [8]; 100% in the experiment with Escherichia coli [9]; 100% with Escherichia coli [10].
With GENTAMICIN, the Activity in the experiment on Enterobacter cloacae [1] was determined as 100%; in the experiment on Morganella morganii, 100%; with Escherichia coli [2] it was 83%; with Klebsiella pneumoniae [3] it was 33%; in the experiment on Klebsiella pneumoniae [4], 67%; in the experiment on Enterobacter cloacae [5], 12%. For the same molecule, the Activity in the experiment on Proteus mirabilis was 0%; in the experiment with Klebsiella pneumoniae [6] it was 89%; in the experiment with Escherichia coli [7] it was 100%; in the experiment on Escherichia coli [8], 0%; in the experiment with Escherichia coli [9] it was 100%; in the experiment on Escherichia coli [10] it was 100%.

Source of the values: ChEMBL document CHEMBL1649259, “High prevalence of CTX-M-type beta-lactamases among clinical isolates of Enterobacteriaceae in Bamako, Mali” (2009).
